Patent USRE35517E, “Method, compositions, and compounds for modulating brain excitability” (priority 1992, dated 1997)
Read-outs that look alike come from different tables or passages of the source.

Columns and labels:
metrazol = test system: metrazol; parameters: key: NP: no protection; conditions: mice, cited from earlier work
picrotoxin = test system: picrotoxin; parameters: key: NP: no protection; conditions: mice, cited from earlier work
[1] = test system: (+)bicuculline-induced seizures; parameters: key: NP: no protection; conditions: mice, cited from earlier work
maximal electroshock = test system: maximal electroshock; parameters: unit not given here; conditions: mice, cited from earlier work
strychnine = test system: strychnine; parameters: key to ED50 STR (strychnine): NP: no protection; conditions: mice, cited from earlier work
rotorod performance [2] = test system: rotorod performance; parameters: unit not given beside the values; conditions: mice; data from Swinyard & Woodhead 1982; cited from earlier work
[3] = test system: GABA/benzodiazepine receptor-chloride ionopore complex (GBR complex); test: Modulation of [35S]TBPS binding in rat cerebral cortex P2 homogenate; parameters: species or system rat (male Sprague-Dawley); conditions: for CONTROL IC50: inhibition of basal 2 nM [35S]TBPS binding; for CONTROL IC50 / +5 μM IC50: 25° C., 90 minutes; for +5 μM IC50: inhibition of 2 nM [35S]TBPS binding, +5 μM (GABA)
Method: These procedures were performed as follows:

[4] = test system: GABA/benzodiazepine receptor-chloride ionopore complex (GBR complex); test: Dissociation kinetics of [35S]TBPS in rat cerebral cortical membranes; type: binding; conditions: for biphasic dissociation mechanism of [35S]TBPS: FIGS. 2A, 2B, pentobarbital 30 micromolar, alphaxalone 300 nanomolar, 5-alpha-pregnan-3-alpha-hydroxy-20-one 20 nanomolar; for t1/2, R (rapidly dissociating component) / t1/2, S (slowly dissociating component): 30 nM Na pentobarbital; for Total percentage of specific sites, R: rapidly dissociating component, Na pentobarbital (**P < 0.01 vs control); for Total percentage of specific sites, S: slowly dissociating component, Na pentobarbital (*P < 0.05 vs control)
Method: An assay was performed to determine the effect of pentobarbital on the dissociation kinetics of [^35 S]TBPS in rat cerebral cortical membranes. This assay was performed in accordance with the procedures outlined above. […] Dissociation of bound [^35 ]TBPS was initiated by 2 micromolar TBPS in all cases.

BZ receptor = test: Modulation of [3H]flunitrazepam binding in rat hippocampal homogenates, with pentobarbital (FIG. 3); conditions: 1.0 millimolar pentobarbital, 0.25 nM [3H]FLU, absence of GABA
Acute lethality (LD50) = conditions: mice; from therapeutic index
convulsions = test: Anticonvulsant screen (chemical convulsants and maximal electroshock), overall; type: in vivo, mice; conditions: in comparison to clinically useful anticonvulsants, benzodiazepines
Method: Experiments were also performed to determine the physiological relevance of these interactions by measuring the ability of the compounds of and used in the invention to modulate TBPS-induced convulsions in Swiss-Webster mice. […] The time to onset of myoclonus (presence of forelimb clonic activity) induced by TBPS was determined by observing each mouse of a period of 45 minutes. Significant differences between the time to onset in control mice vs. steroid-treated mice were determined by Student's t-test. […] The number of animals with tonic and/or clonic convulsions was recorded. In the maximal electroshock test, 50 mA of current at 60 Hz was delivered through corneal electrodes for 200 msec. […] The ED50 (the dose at which the half-maximal effect occurs) dose was determined for each screen.

rotorod performance [5] = test: Rotorod test (sedative potential); parameters: ED50 RR (rotorod): unit not given beside the values; conditions: mice
[6] = test system: premenstrual syndrome, PND, catamenial epilepsy; conditions: patients, cited from earlier work
[7] = convulsant administered i.v., data from Worms et al. 1982
[8] = data from Swinyard & Woodhead 1982, NP = no protection
[9] = data from Swinyard & Woodhead 1982
[10] = [35S]TBPS dissociation, rat cortex, 300 nM alphaxalone, 20 nM a-OH-DHP
[11] = [35S]TBPS dissociation, rat cortex, Na pentobarbital, 300 nM alphaxalone, 20 nM a-OH-DHP
[12] = 300 nM alphaxalone, 20 nM a-OH-DHP

For `NC(=O)CCC/N=C(\c1ccc(Cl)cc1)c1cc(F)ccc1O` [Progabide], the “ED50 MTZ (metrazol)” value (metrazol; [7]) is listed as 30, the “ED50 PICRO (picrotoxin)” value (picrotoxin; [7]) is listed as 105 and the “ED50 BIC (bicuculline)” value [1, 7] is listed as 30. The “ED50 MES (maximal electroshock)” value (maximal electroshock; data from Worms et al. 1982) was 75 and the “ED50 STR (strychnine)” value (strychnine; [7]) was 75.

For `CCC1(c2ccccc2)C(=O)NC(=O)NC1=O` [Phenobarbital], the “ED50 MTZ (metrazol)” value (metrazol; [8]) is listed as 13, the “ED50 PICRO (picrotoxin)” value (picrotoxin; [8]) is listed as 28 and the “ED50 RR (rotorod)” value (rotorod performance [2]) is listed as 69. For the same compound, the “ED50 BIC (bicuculline)” value [1, 8] was 38, the “ED50 MES (maximal electroshock)” value (maximal electroshock; [9]) was 22 and the “ED50 STR (strychnine)” value (strychnine; [8]) was 95.

In the case of `CC(=O)[C@H]1CC[C@H]2[C@@H]3CC[C@H]4C[C@@H](O)CC[C@]4(C)[C@H]3CC[C@]12C` [ALLOPREGNANLONE, 5α-PREGNAN-3β-OL- 20-ONE], the “CONTROL IC50” value [3] is reported as “INACTIVE”.

For `CC(C)CCC[C@@H](C)[C@H]1CC[C@H]2[C@@H]3CC=C4C[C@@H](O)CC[C@]4(C)[C@H]3CC[C@]12C` [CHOLESTEROL], the “+5 μM IC50” value [3] was “INACTIVE” and the “CONTROL IC50” value [3] was “INACTIVE”.

For `C[C@]12CC[C@@H]3c4ccc(O)cc4CC[C@H]3[C@@H]1CC[C@@H]2O` [17β-ESTRADIOL], the “+5 μM IC50” value [3] was “INACTIVE” and the “CONTROL IC50” value [3] was “INACTIVE”.

With `CCCC(C)C1(CC)C(=O)NC(=O)NC1=O` (stereo not shown) [Pentobarbital] the “biphasic dissociation mechanism of [35S]TBPS” value [4] was “induces a biphasic dissociation mechanism”, the “t1/2, R (rapidly dissociating component)” value [4, 10] was 4.4 ± 0.3 and the “t1/2, S (slowly dissociating component)” value [4, 10] was 38 ± 3. The “k-1, R (rapidly dissociating component)” value [4, 11] was 0.158 ± 0.013 min⁻¹, the “k-1, S (slowly dissociating component)” value [4, 11] was 0.0186 ± 0.0015 min⁻¹ and the “Total percentage of specific sites, R” value [4, 12] was 48 ± 6%. The “Total percentage of specific sites, S” value [4, 12] was 61 ± 6%.

With `CC(=O)[C@H]1CC[C@H]2[C@@H]3CC=C4C[C@@H](O)CC[C@]4(C)[C@H]3CC[C@]12C` [PREGNENOLONE, 5α-PREGNEN-3β-OL- 20-ONE] the “CONTROL IC50” value [3] was “INACTIVE”.

In the case of `CC(=O)[C@H]1CC[C@H]2[C@@H]3CC[C@H]4C[C@H](O)CC[C@]4(C)[C@H]3CC[C@]12C` [3α-OH-DHP, 3α-hydroxy-5α-pregnan-20-one], the “interaction with pentobarbital in the enhancement of [3H]flunitrazepam binding” value (BZ receptor) is reported as “does not interact with pentobarbital”, the “toxicity, in words” value (Acute lethality (LD50)) is reported as “very low toxicity” and the “anticonvulsant activity / profile” value (convulsions) is reported as “highly effective with a profile similar to that of the benzodiazepine clonazepam”. The “biphasic dissociation mechanism of [35S]TBPS” value [4] was “absent”, the “t1/2, R (rapidly dissociating component)” value [4, 10] was 6.4 ± 1 and the “t1/2, S (slowly dissociating component)” value [4, 10] was 76 ± 11. The “k-1, S (slowly dissociating component)” value [4, 11] was 0.011 ± 0.002 min⁻¹, the “Total percentage of specific sites, R” value [4, 12] was 35 ± 3% and the “influence on the dissociation kinetics of [35S]TBPS binding” value ([4]; rat cerebral cortex) was “do not influence the dissociation kinetics”. The “Total percentage of specific sites, S” value [4, 12] was 68 ± 3%, the “ED50 RR (rotorod)” value (rotorod performance [5]; 10 minutes after injection) was 40-100 and the “sedative liability at anticonvulsant doses” value (rotorod performance [5]; rotorod ED50 compared with (+)bicuculline ED50) was “low”.

For `C[C@]12C[C@H](O)[C@H]3[C@@H](CCC4=CC(=O)CC[C@@]43C)[C@@H]1CC[C@@H]2C(=O)CO` [CORTICOSTERONE, 4-PREGNEN-11β,21- DIOL-3,20-DIONE], the “CONTROL IC50” value [3] was “INACTIVE”.

For `O=C1CN=C(c2ccccc2Cl)c2cc([N+](=O)[O-])ccc2N1` [Clonazepam], the “ED50 MTZ (metrazol)” value (metrazol; [8]) is given as 0.009, the “ED50 PICRO (picrotoxin)” value (picrotoxin; [8]) is given as 0.043 and the “ED50 RR (rotorod)” value (rotorod performance [2]) is given as 0.184. For the same compound, the “ED50 BIC (bicuculline)” value [1, 8] was 0.0086, the “ED50 MES (maximal electroshock)” value (maximal electroshock; [9]) was 93 and the “ED50 STR (strychnine)” value (strychnine; [8]) was “NP”.

For `O=C1NC(=O)C(c2ccccc2)(c2ccccc2)N1` [Phenytoin], the “ED50 MTZ (metrazol)” value (metrazol; [8]) is given as “NP”, the “ED50 PICRO (picrotoxin)” value (picrotoxin; [8]) is given as “NP” and the “ED50 BIC (bicuculline)” value [1, 8] is given as “NP”. For the same compound, the “Maximum protection (strychnine)” value (strychnine; at 55-100 mg/kg, data from Swinyard & Woodhead 1982) was 50%.

In the case of `CC(=O)[C@H]1CC[C@H]2[C@@H]3CCC4=CC(=O)CC[C@]4(C)[C@H]3CC[C@]12C` [PROGESTERONE], the “potency (and efficacy) at the GBR complex” value ([3]; in vitro, [35S]TBPS binding) is given as “very low potency”, the “effectiveness in the treatment of PMS, PND and catamenial epilepsy” value ([6]; literature) is given as “not consistently effective” and the “dose-response relationship in the treatment of PMS” value ([6]; Maddocks et al., Dennerstein et al. 1986) is given as “no dose-response relationship exists”.

In the case of `CCCC(CCC)C(=O)O` [Valproate], the “ED50 MTZ (metrazol)” value (metrazol; [8]) is given as 149, the “ED50 PICRO (picrotoxin)” value (picrotoxin; [8]) is given as 387 and the “ED50 BIC (bicuculline)” value [1, 8] is given as 360. For the same compound, the “ED50 MES (maximal electroshock)” value (maximal electroshock; [9]) was 272 and the “ED50 STR (strychnine)” value (strychnine; [8]) was 293.
